# Literature values as cited in patent US12292444B2, “Methods and compositions related to modified green fluorescent protein (GFP) with an embedded foreign peptide” (University of South Florida, priority 2020, dated 2025).
# System: Gram-negative bacteria, such as Escherichia coli, Pseudomonas aeruginosa, and Salmonella typhimurium
# Conditions: Wu 1999
substance,measurement,value
"Bactenecin: Antimicrobial peptide synthesized by neutrophils, used as substitute of the central α-helix in GFP (RLCRIVSYGVIRVCRR; listed as Aequorea victoria)",activity against Gram-negative bacteria,has an activity
